Results on two compounds are retold here after patent US8846709B2, “7-(3,5-dimethyl-4-isoxazolyl)-8-(methyloxy)-1H-imidazo[4,5-C]quinoline derivatives” (GlaxoSmithKline LLC, priority 2011, dated 2014).

For the assay, the system named is LPS induced IL-6 secretion from whole blood. As to the kind of experiment: Measurement of LPS Induced IL-6 Secretion from Whole Blood. The class given is cell-based. Conditions: IL-6 in whole blood, LPS 200 ng/ml, 24 hours. The method, then: Activation of monocytic cells by agonists of toll-like receptors such as bacterial lipopolysaccharide (LPS) results in production of key inflammatory mediators including IL-6. Such pathways are widely considered to be central to the pathophysiology of a range of auto-immune and inflammatory disorders.
Compounds to be tested are diluted to give a range of appropriate concentrations of which 1 μl of the diluted stocks is added to a 96 well plate. Following addition of whole blood (130 μl) the plates are incubated at 37 degrees (5% CO2) for 30 min before the addition of 10 μl of 2.8 ug/ml LPS, diluted in complete RPMI 1640 (final concentration=200 ng/ml), to give a total volume of 140 ul per well. After further incubation for 24 hours at 37 degrees, 140 μl of PBS are added to each well. The plates are sealed, shaken for 10 minutes and then centrifuged (2500 rpm×10 min). 100 μl of the supernatant are removed and IL-6 levels assayed by immunoassay (typically by MesoScale Discovery technology) either immediately or following storage at −20 degrees. Concentration response curves for each compound was generated from the data and an IC50 value was calculated

As usually defined, the IC50 is the midpoint of a concentration-inhibition curve. Low readings indicate higher potency, high ones lower potency. Consider `COc1cc2c(cc1-c1c(C)noc1C)ncc1nc(NCCO)n(CC3CCOCC3)c12` [Example 2, 2-{[7-(3,5-dimethyl-4-isoxazolyl)-8-(methyloxy)-1-(tetrahydro-2H-pyran-4-ylmethyl)-1H-imidazo[4,5-c]quinolin-2-yl]amino}ethanol], for which the IC50 is over 3.16 µM.
The result for `COc1cc2c(cc1-c1c(C)noc1C)ncc1nc(NCCN)n(CC3CCOCC3)c12` [Example 8, N1-(7-(3,5-dimethylisoxazol-4-yl)-8-methoxy-1-((tetrahydro-2H-pyran-4-yl)methyl)-1H-imidazo[4,5-c]quinolin-2-yl)ethane-1,2-diamine] reads over 3.16 µM.
